Results as given in patent US10375959B2, “Ternary herbicidal combination comprising saflufenacil” (BASF Agro B.V., priority 2015, dated 2019).
“And” between values parts separate entries of the source, which are not always exact repeats. Identical values can stand only once. Like-named read-outs stand apart in the source and are kept apart here.

Assays:
Format in all cases: in vivo
Abutilon theophrasti = test: Greenhouse post-emergence herbicidal activity on ABUTH (velvetleaf), 20 DAT; conditions: for inhibition at 0.5 g/ha: 0.5 g ai/ha
Excerpt: (§1) The test plants were first grown to a height of 3 to 20 cm, depending on the plant habit, and only then treated (post-emergence treatment). Here, the herbicidal combinations were suspended, emulsified or dissolved in water as distribution medium and afterwards applied by spraying, using finely distributing nozzles.
(§2) The herbicides A, B and C were used as commercially available formulations and introduced to the spray liquor with the amount of solvent system used for applying the active compound. In the examples, the solvent used was water.
(§3) The test period extended over 20 days. During this time, the plants were tended, and their response to the treatments with active compounds was evaluated.
(§4) The evaluation for the damage caused by the chemical compositions was carried out using a scale from 0 to 100%, compared to the untreated control plants. Here, 0 means no damage and 100 means complete destruction of the plants.
(§5) The plants used in the greenhouse experiments belonged to the following species:
(§6) The value E, which is to be expected if the activity of the individual compounds is just additive, was calculated using the method of S. R. Colby (1967) “Calculating synergistic and antagonistic responses of herbicide combinations”, Weeds 15, p. 22 ff. For two component mixtures the value E was calculated by the following formula E=X+Y−(X·Y/100)
(§7) where X=effect in percent using a mixture of herbicides A and B at application rates a and b, respectively; • Y=effect in percent using herbicide C at an application rate c; • E=expected effect (in %) of A+B+C at application rates a+b+c.
(§8) If the value observed in this manner is higher than the value E calculated according to Colby, a synergistic effect is present.
(§9) Tables 1 to 41 relate to the herbicidal activities of the binary mixture of herbicides A and B, of herbicide C individually and of their combinations in post-emergence applications assessed 20 days after treatment (20 DAT).

Brachiaria platyphylla = test: Greenhouse post-emergence herbicidal activity on BRAPP (broadleaf signalgrass), 20 DAT
Excerpt: as §1, §2, §3, §4, §5, §6, §7, §8, §9

Digitaria sanguinalis = test: Greenhouse post-emergence herbicidal activity on DIGSA (large crabgrass), 20 DAT
Excerpt: as §1, §2, §3, §4, §5, §6, §7, §8, §9

Amaranthus retroflexus = test: Greenhouse post-emergence herbicidal activity on AMARE (pig weed), 20 DAT
Excerpt: as §1, §2, §3, §4, §5, §6, §7, §8, §9

Avena fatua = test: Greenhouse post-emergence herbicidal activity on AVEFA (wild oat), 20 DAT
Excerpt: as §1, §2, §3, §4, §5, §6, §7, §8, §9

Setaria viridis = test: Greenhouse post-emergence herbicidal activity on SETVI (green foxtail), 20 DAT
Excerpt: as §1, §2, §3, §4, §5, §6, §7, §8, §9

Echinochloa crus-galli = test: Greenhouse post-emergence herbicidal activity on ECHCG (barnyardgrass), 20 DAT
Excerpt: as §1, §2, §3, §4, §5, §6, §7, §8, §9

Solarium nigrum = test: Greenhouse post-emergence herbicidal activity on SOLNI (black nightshade), 20 DAT
Excerpt: as §1, §2
The test period extended over 20 days. During this time, the plants were tended, and their response to the treatments with active compounds was evaluated. […]
The value E, which is to be expected if the activity of the individual compounds is just additive, was calculated using the method of S. R. Colby (1967) “Calculating synergistic and antagonistic responses of herbicide combinations”, Weeds 15, p. […] For two component mixtures the value E was calculated by the following formula E=X+Y−(X·Y/100) […]
as §8, §9

Brachiaria decumbens = test: Greenhouse post-emergence herbicidal activity on BRADC (Surinam grass), 20 DAT
Excerpt: as §1, §2, §3, §4, §5, §6, §7, §8, §9

CCCCC(CC)COC(=O)COc1ccc(Cl)cc1Cl (stereo not shown) [2,4-D LV ester, 2-ethylhexyl ester of 2,4-D]
% activity 20 DAT (Abutilon theophrasti; ABUTH, C 6.25 g ai/ha): 20% | % activity 20 DAT (Brachiaria platyphylla; C 6.25 g ai/ha): 20% | % activity 20 DAT (Digitaria sanguinalis; DIGSA, C 6.25 g ai/ha): 0%

CCOCN(C(=O)CCl)c1c(C)cccc1CC [acetochlor]
pest or weed control at 25 g/ha (Abutilon theophrasti; Abutilon theophrasti, 480 h, ABUTH, C 25.0 g ai/ha): 25% | % activity 20 DAT (Amaranthus retroflexus; AMARE, C 12.5 g ai/ha): 0% | % activity 20 DAT (Avena fatua; C 50.0 g ai/ha): 10% | % activity 20 DAT (Brachiaria platyphylla; C 50.0 g ai/ha): 5% | % activity 20 DAT (Setaria viridis; C 50.0 g ai/ha): 10%

CCNc1nc(Cl)nc(NC(C)C)n1 [atrazine]
inhibition at 12.5 g/ha (Abutilon theophrasti; Abutilon theophrasti, 480 h, ABUTH, 12.5 g ai/ha, 20 DAT, read-out: % activity 20 DAT, solo C application): 25% | % activity 20 DAT (Avena fatua; C 12.5 g ai/ha): 0% | % activity 20 DAT (Brachiaria platyphylla; C 12.5 g ai/ha): 0% | inhibition at 25 g/ha (Setaria viridis; Setaria viridis, 480 h, 25.0 g ai/ha, 20 DAT, read-out: % activity 20 DAT, solo C application): 25%

CCSC(C)CC1CC(=O)C(/C(CC)=N/OC/C=C/Cl)=C(O)C1 (stereo not shown) [clethodim]
pest or weed control at 0.75 g/ha (Abutilon theophrasti; Abutilon theophrasti, 480 h, read-out: % activity 20 DAT): 5% | inhibition at 0.75 g/ha (Abutilon theophrasti; Abutilon theophrasti, 480 h, read-out: % activity 20 DAT, solo C application): 5% | inhibition at 0.75 g/ha (Amaranthus retroflexus; Amaranthus retroflexus, 480 h, read-out: % activity 20 DAT, solo C application): 20% | % activity 20 DAT (Avena fatua; C 0.75 g ai/ha): 20% | inhibition at 0.75 g/ha (Digitaria sanguinalis; Digitaria sanguinalis, 480 h, read-out: % activity 20 DAT, solo C application): 0%

COc1c(Cl)ccc(Cl)c1C(=O)O [dicamba]
pest or weed control at 4.375 g/ha (Abutilon theophrasti; Abutilon theophrasti, 480 h, ABUTH, C 4.375 g ai/ha): 40% | % activity 20 DAT (Brachiaria platyphylla; C 17.5 g ai/ha): 40%

CCOc1nc(F)cc2nc(S(=O)(=O)Nc3c(Cl)cccc3Cl)nn12 [diclosulam]
% activity 20 DAT, solo C application (Abutilon theophrasti; ABUTH, 0.125 g ai/ha, 20 DAT): 10% | % activity 20 DAT, solo C application (Brachiaria platyphylla; 1.0 g ai/ha, 20 DAT): 45% | % activity 20 DAT (Digitaria sanguinalis; DIGSA, C 0.5 g ai/ha): 25% | % activity 20 DAT (Echinochloa crus-galli; C 1.0 g ai/ha): 20% | % activity 20 DAT (Solarium nigrum; C 0.125 g ai/ha): 0%

COC[C@H](C)N(C(=O)CCl)c1c(C)csc1C [dimethenamid-P]
% activity 20 DAT, solo C application (Abutilon theophrasti; ABUTH, 37.5 g ai/ha, 20 DAT): 0% | % activity 20 DAT, solo C application (Amaranthus retroflexus; AMARE, 37.5 g ai/ha, 20 DAT): 0% | % activity 20 DAT (Amaranthus retroflexus; AMARE, C 18.75 g ai/ha): 0% | % activity 20 DAT (Avena fatua; C 75.0 g ai/ha): 20% | % activity 20 DAT (Brachiaria platyphylla; C 75.0 g ai/ha): 5% | % activity 20 DAT, solo C application (Echinochloa crus-galli; 75 g ai/ha, 20 DAT): 80%

C#CCN1C(=O)COc2cc(F)c(N3C(=O)C4=C(CCCC4)C3=O)cc21 [flumioxazin]
% activity 20 DAT (Setaria viridis; C 0.5 g ai/ha): 40%

CS(=O)(=O)NC(=O)c1cc(Oc2ccc(C(F)(F)F)cc2Cl)ccc1[N+](=O)[O-] [fomesafen]
inhibition at 3 g/ha (Abutilon theophrasti; Abutilon theophrasti, 480 h, ABUTH, 3.0 g ai/ha, 20 DAT, read-out: % activity 20 DAT, solo C application): 20% | pest or weed control at […] (Abutilon theophrasti; Abutilon theophrasti, 480 h, ABUTH, C 1.5 g ai/ha): 5% | inhibition at 3 g/ha (Amaranthus retroflexus; Amaranthus retroflexus, 480 h, AMARE, 3.0 g ai/ha, 20 DAT, read-out: % activity 20 DAT, solo C application): 65% | % activity 20 DAT (Avena fatua; C 1.5 g ai/ha): 20% | % activity 20 DAT (Brachiaria decumbens; C 3.0 g ai/ha): 30% | inhibition at […] (Digitaria sanguinalis; Digitaria sanguinalis, 480 h, DIGSA, 1.5 g ai/ha, 20 DAT, read-out: % activity 20 DAT, solo C application): 20% | inhibition at […] (Echinochloa crus-galli; Echinochloa crus-galli, 480 h, 1.5 g ai/ha, 20 DAT, read-out: % activity 20 DAT, solo C application): 20%

COCc1cnc(C2=NC(C)(C(C)C)C(=O)N2)c(C(=O)O)c1 (stereo not shown) [imazamox]
inhibition at 0.5 g/ha (Abutilon theophrasti; Abutilon theophrasti, 480 h, ABUTH, 20 DAT, Table 38, read-out: % activity 20 DAT, solo C application): 0% | pest or weed control at 0.5 g/ha (Abutilon theophrasti; Abutilon theophrasti, 480 h, ABUTH, C 0.5 g ai/ha): 0% | % activity 20 DAT (Amaranthus retroflexus; AMARE, C 0.125 g ai/ha): 10% | inhibition at 0.5 g/ha (Amaranthus retroflexus; Amaranthus retroflexus, 480 h, AMARE, 0.5 g ai/ha, 20 DAT, read-out: % activity 20 DAT, solo C application): 40% | % activity 20 DAT (Digitaria sanguinalis; DIGSA, C 1.0 g ai/ha): 15% | inhibition at 0.5 g/ha (Digitaria sanguinalis; Digitaria sanguinalis, 480 h, DIGSA, 0.5 g ai/ha, 20 DAT, read-out: % activity 20 DAT, solo C application): 10% | % activity 20 DAT (Echinochloa crus-galli; C 0.5 g ai/ha): 0% | inhibition at 0.5 g/ha (Setaria viridis; Setaria viridis, 480 h, 0.5 g ai/ha, 20 DAT, read-out: % activity 20 DAT, solo C application): 15%

CCc1cnc(C2=NC(C)(C(C)C)C(=O)N2)c(C(=O)O)c1 (stereo not shown) [imazethapyr]
% activity 20 DAT (Amaranthus retroflexus; AMARE, C 1.0 g ai/ha): 55% | % activity 20 DAT (Avena fatua; C 0.5 g ai/ha): 0% | % activity 20 DAT (Digitaria sanguinalis; DIGSA, C 0.5 g ai/ha): 15% | % activity 20 DAT (Digitaria sanguinalis; DIGSA, C 2.0 g ai/ha): 20%

CS(=O)(=O)c1cc(C(F)(F)F)ccc1C(=O)c1cnoc1C1CC1 [isoxaflutole]
inhibition at 0.5 g/ha (Abutilon theophrasti; Abutilon theophrasti, 480 h, ABUTH, 20 DAT, Table 36, read-out: % activity 20 DAT, solo C application): 50% | pest or weed control at 1 g/ha (Abutilon theophrasti; Abutilon theophrasti, 480 h, ABUTH, C 1.0 g ai/ha): 85% | % activity 20 DAT (Brachiaria platyphylla; C 2.0 g ai/ha): 40% | % activity 20 DAT (Digitaria sanguinalis; DIGSA, C 1.0 g ai/ha): 25% | % activity 20 DAT (Solarium nigrum; C 0.5 g ai/ha): 70%

CS(=O)(=O)c1ccc(C(=O)C2C(=O)CCCC2=O)c([N+](=O)[O-])c1 [mesotrione]
inhibition at 0.625 g/ha (Abutilon theophrasti; Abutilon theophrasti, 480 h, ABUTH, 0.625 g ai/ha, 20 DAT, read-out: % activity 20 DAT, solo C application): 75% | % activity (Amaranthus retroflexus; AMARE, 20 DAT, C 0.625): 0% | % activity (Brachiaria platyphylla; 20 DAT, C 5.0): 35% | inhibition at 5 g/ha (Brachiaria platyphylla; Urochloa platyphylla, 480 h, 5.0 g ai/ha, 20 DAT, read-out: % activity 20 DAT, solo C application): 40% | % activity 20 DAT (Digitaria sanguinalis; DIGSA, C 2.5 g ai/ha): 80%

CCC(CC)Nc1c([N+](=O)[O-])cc(C)c(C)c1[N+](=O)[O-] [pendimethalin]
pest or weed control at 37.5 g/ha (Abutilon theophrasti; Abutilon theophrasti, 480 h, ABUTH, C 37.5 g ai/ha): 0% | % activity 20 DAT (Avena fatua; C 150.0 g ai/ha): 0% | % activity 20 DAT (Echinochloa crus-galli; C 75.0 g ai/ha): 0% | % activity 20 DAT (Echinochloa crus-galli; C 150.0 g ai/ha): 0%

Cc1c(C(=O)c2cnn(C)c2O)ccc(S(C)(=O)=O)c1C1=NOCC1 [topramezone]
% activity 20 DAT, solo C application (Abutilon theophrasti; ABUTH, 0.25 g ai/ha, 20 DAT): 10% | % activity 20 DAT (Abutilon theophrasti; ABUTH, C 0.25 g ai/ha): 10% and 0% | % activity 20 DAT, solo C application (Amaranthus retroflexus; AMARE, 0.25 g ai/ha, 20 DAT): 40% | % activity 20 DAT (Amaranthus retroflexus; AMARE, C 0.25 g ai/ha): 40% | % activity 20 DAT, solo C application (Avena fatua; 0.25 g ai/ha, 20 DAT): 0% | % activity 20 DAT (Brachiaria decumbens; C 0.25 g ai/ha): 0% | % activity 20 DAT (Brachiaria decumbens; C 0.5 g ai/ha): 0% | % activity 20 DAT, solo C application (Echinochloa crus-galli; 0.25 g ai/ha, 20 DAT): 25% | % activity 20 DAT (Echinochloa crus-galli; C 0.25 g ai/ha): 25% and 20% | % activity 20 DAT, solo C application (Setaria viridis; 0.25 g ai/ha, 20 DAT): 0% | % activity 20 DAT (Setaria viridis; C 0.25 g ai/ha): 0% | % activity 20 DAT (Setaria viridis; C 0.5 g ai/ha): 0%
